Laboratory results as given in patent US6949647B2, “Synthesis of pancratistatin” (Arizona Board of Regents, priority 2000, dated 2005).
≈ marks a conversion by molar mass, not a printed value. Counter-ions that a name gives are not always drawn. Like-named read-outs stand apart in the source and are kept apart here.

Experiments:
[1] = tested on: Ovcar-3; assay: Human cancer cell line growth inhibition, ovarian Ovcar-3; conditions: for TGI: total growth inhibition
[2] = tested on: DU-145; assay: Human cancer cell line growth inhibition, prostate DU-145; conditions: for TGI: total growth inhibition
[3] = tested on: NCI-H460; assay: Human cancer cell line growth inhibition, lung-NSC NCI-H460; conditions: for TGI: total growth inhibition
[4] = tested on: BXPC-3; assay: Human cancer cell line growth inhibition, pancreas-a BXPC-3; conditions: for TGI: total growth inhibition
[5] = tested on: KM20L2; assay: Human cancer cell line growth inhibition, colon KM20L2; conditions: for TGI: total growth inhibition
[6] = tested on: SF-295; assay: Human cancer cell line growth inhibition, CNS SF-295; conditions: for TGI: total growth inhibition
[7] = tested on: P388; assay: Murine lymphocytic leukemia P388 cell line inhibition

Row | SMILES | GI50 ([1]; Ovarian Ovcar-3) | TGI ([1]; Ovarian Ovcar-3) | GI50 ([2]; Prostate DU-145) | TGI ([2]; Prostate DU-145) | GI50 ([3]; Lung-NSC NCI-H460) | TGI ([3]; Lung-NSC NCI-H460) | GI50 ([4]; Pancreas-a BXPC-3) | TGI ([4]; Pancreas-a BXPC-3) | GI50 ([5]; Colon KM20L2) | TGI ([5]; Colon KM20L2) | GI50 ([6]; CNS SF-295) | TGI ([6]; CNS SF-295) | ED50 ([7]; Murine leukemia P388) | ED50 [7] | GI50 ([1]; Homo sapiens, OVCAR-3) | GI50 ([2]; Homo sapiens, DU-145) | GI50 ([3]; Homo sapiens, NCI-H460) | GI50 ([4]; Homo sapiens, BXPC-3) | GI50 ([5]; Homo sapiens, KM-20L2) | GI50 ([6]; Homo sapiens, SF-295)
1 | CC1(C)O[C@@H]2[C@@H](O)[C@@H](O)[C@H]3c4cc5c(c(O)c4C(=O)N[C@H]3[C@@H]2O1)OCO5 [Compound 9, B/C Cis-1-Isopancratistatin 3,4-acetonide] | >10 µg/mL | >10 µg/mL | >10 µg/mL | >10 µg/mL | >10 µg/mL | >10 µg/mL | >10 µg/mL | >10 µg/mL | >10 µg/mL | >10 µg/mL | >10 µg/mL | >10 µg/mL | >10 µg/mL | – | – | – | – | – | – | –
2 | O=C(OC1C(O)C(O)C(O)C2NC(=O)c3c(cc4c(c3O)OCO4)C21)c1ccccc1 (stereo not shown) [Compound 13, Pancratistatin 1-Benzoate] | <0.001 µg/mL | 0.0019 µg/mL (≈ 0.00442 µM) | – | 0.0026 µg/mL (≈ 0.00606 µM) | <0.001 µg/mL | – | 0.00094 µg/mL (≈ 0.00219 µM) | 0.0053 µg/mL (≈ 0.0123 µM) | <0.001 µg/mL | 0.0034 µg/mL (≈ 0.00792 µM) | 0.0013 µg/mL (≈ 0.00303 µM) | 0.0049 µg/mL (≈ 0.0114 µM) | – | 0.0017 µg/mL (≈ 0.00396 µM) | – | – | – | – | – | –
3 | CC1(C)O[C@@H]2[C@@H](O)[C@H]3OC34c3cc5c(c(O)c3C(=O)N[C@H]4[C@@H]2O1)OCO5 (stereo partly drawn) [Compound 10, 1,10b-α-epoxy-narciclasine 3,4-acetonide] | – | >10 µg/mL | – | >10 µg/mL | – | >10 µg/mL | – | >10 µg/mL | – | >10 µg/mL | – | >10 µg/mL | >10 µg/mL | – | > 10 µg/mL | > 10 µg/mL | > 10 µg/mL | > 10 µg/mL | > 10 µg/mL | > 10 µg/mL
4 | CC1(C)O[C@H]2[C@@H]3NC(=O)c4c(cc5c(c4O)OCO5)[C@H]3C3OS(=O)(=O)O[C@@H]3[C@H]2O1 (stereo partly shown) [Compound 12, 1-Isopancratistatin 1,2 Cyclic Sulfate-3,4-acetonide] | – | >10 µg/mL | – | >10 µg/mL | – | >10 µg/mL | – | >10 µg/mL | – | >10 µg/mL | – | >10 µg/mL | >10 µg/mL | – | > 10 µg/mL | > 10 µg/mL | > 10 µg/mL | > 10 µg/mL | > 10 µg/mL | > 10 µg/mL
5 | O=C1N[C@H]2[C@H](O)[C@H](O)[C@@H](O)[C@H](O)[C@@H]2c2cc3c(c(O)c21)OCO3 [Compound 1a, (+)-Pancratistatin] | – | 0.11 µg/mL (≈ 0.338 µM) | – | 0.1 µg/mL (≈ 0.307 µM) | – | 0.43 µg/mL (≈ 1.32 µM) | – | 0.14 µg/mL (≈ 0.43 µM) | – | 0.23 µg/mL (≈ 0.707 µM) | – | 0.091 µg/mL (≈ 0.28 µM) | 0.032 µg/mL (≈ 0.0984 µM) | – | 0.032 µg/mL (≈ 0.0984 µM) | 0.016 µg/mL (≈ 0.0492 µM) | 0.048 µg/mL (≈ 0.148 µM) | 0.028 µg/mL (≈ 0.0861 µM) | 0.026 µg/mL (≈ 0.0799 µM) | 0.017 µg/mL (≈ 0.0523 µM)
6 | CC1(C)O[C@@H]2[C@H](O1)[C@@H](O)C=C1c3cc4c(c(O)c3C(=O)N[C@H]12)OCO4 [Compound 3, Narciclasine 3,4-acetonide] | – | >10 µg/mL | – | >10 µg/mL | – | >10 µg/mL | – | >10 µg/mL | – | >10 µg/mL | – | >10 µg/mL | >10 µg/mL | – | > 10 µg/mL | > 10 µg/mL | > 10 µg/mL | > 10 µg/mL | > 10 µg/mL | > 10 µg/mL
7 | COC1c2c([nH]c(=O)c3c(O)c4c(cc23)OCO4)C2OC(C)(C)OC2C1O (stereo not shown) [Compound 7, 1-Methoxy-Isonarciclasine 3,4-acetonide] | >10 µg/mL | >10 µg/mL | >10 µg/mL | >10 µg/mL | >10 µg/mL | >10 µg/mL | >10 µg/mL | >10 µg/mL | >10 µg/mL | >10 µg/mL | >10 µg/mL | >10 µg/mL | >10 µg/mL | – | – | – | – | – | – | –
8 | CC(=O)Oc1c2c(cc3c1C(=O)NC1C3=CC(OC(C)=O)C3OC(C)(C)OC13)OCO2 (stereo not shown) [Compound 4, 2,7-Di-acetoxy-narciclasine 3,4-acetonide] | >10 µg/mL | >10 µg/mL | >10 µg/mL | >10 µg/mL | >10 µg/mL | >10 µg/mL | >10 µg/mL | >10 µg/mL | >10 µg/mL | >10 µg/mL | >10 µg/mL | >10 µg/mL | >10 µg/mL | – | – | – | – | – | – | –
9 | CC(=O)Oc1c2c(cc3c1C(=O)NC1C4OC(C)(C)OC4C(OC(C)=O)C4OC314)OCO2 (stereo not drawn) [Compound 6, 1,10b-α-epoxy-2,7-diacetoxy-narciclasine 3,4-acetonide] | >10 µg/mL | >10 µg/mL | >10 µg/mL | >10 µg/mL | >10 µg/mL | >10 µg/mL | >10 µg/mL | >10 µg/mL | >10 µg/mL | >10 µg/mL | >10 µg/mL | >10 µg/mL | >10 µg/mL | – | – | – | – | – | – | –
10 | CC(=O)OC1C=C2c3cc4c(c(O)c3C(=O)NC2C2OC(C)(C)OC12)OCO4 (stereo not shown) [Compound 5, 2-Acetoxy-narciclasine 3,4-acetonide] | >10 µg/mL | >10 µg/mL | >10 µg/mL | >10 µg/mL | >10 µg/mL | >10 µg/mL | >10 µg/mL | >10 µg/mL | >10 µg/mL | >10 µg/mL | >10 µg/mL | >10 µg/mL | >10 µg/mL | – | – | – | – | – | – | –
11 | CC1(C)O[C@@H]2[C@@H](O)[C@@H](O)[C@@H]3c4cc5c(c(O)c4C(=O)N[C@H]3[C@@H]2O1)OCO5 [Compound 8, 1-Isopancratistatin 3,4-acetonide] | – | >10 µg/mL | – | >10 µg/mL | – | >10 µg/mL | – | >10 µg/mL | – | >10 µg/mL | – | >10 µg/mL | 2.6 µg/mL (≈ 7.12 µM) | – | 5 µg/mL (≈ 13.7 µM) | 3.8 µg/mL (≈ 10.4 µM) | > 10 µg/mL | 8.8 µg/mL (≈ 24.1 µM) | 6.9 µg/mL (≈ 18.9 µM) | 7.2 µg/mL (≈ 19.7 µM)
12 | O=C1N[C@@H]2C(=C[C@H](O)[C@@H](O)[C@H]2O)c2cc3c(c(O)c21)OCO3 [Compound 2, (+)-narciclasine, reference compound] | 0.016 µg/mL (≈ 0.0521 µM) | 0.044 µg/mL (≈ 0.143 µM) | 0.0071 µg/mL (≈ 0.0231 µM) | 0.036 µg/mL (≈ 0.117 µM) | 0.022 µg/mL (≈ 0.0716 µM) | 0.1 µg/mL (≈ 0.325 µM) | 0.016 µg/mL (≈ 0.0521 µM) | 0.045 µg/mL (≈ 0.146 µM) | 0.018 µg/mL (≈ 0.0586 µM) | 0.012 µg/mL (≈ 0.0391 µM) | 0.012 µg/mL (≈ 0.0391 µM) | 0.049 µg/mL (≈ 0.159 µM) | 0.0044 µg/mL (≈ 0.0143 µM) | – | – | – | – | – | – | –
